Article PMC9876986, “Direct cell extraction of membrane proteins for structure–function analysis” (Scientific Reports, 2023)

Molecular target: T1, mouse PANX1 (pannexin1) (Mus musculus, UniProt Q9JIP4)
T1 construct: wildtype mouse PANX1, untagged, in His-tagged Salipro nanoparticles
Assay: SPR on immobilized His-Salipro-mPANX1, empty particles as reference
Assay type: binding

T1 sequence (Q9JIP4 whole entry): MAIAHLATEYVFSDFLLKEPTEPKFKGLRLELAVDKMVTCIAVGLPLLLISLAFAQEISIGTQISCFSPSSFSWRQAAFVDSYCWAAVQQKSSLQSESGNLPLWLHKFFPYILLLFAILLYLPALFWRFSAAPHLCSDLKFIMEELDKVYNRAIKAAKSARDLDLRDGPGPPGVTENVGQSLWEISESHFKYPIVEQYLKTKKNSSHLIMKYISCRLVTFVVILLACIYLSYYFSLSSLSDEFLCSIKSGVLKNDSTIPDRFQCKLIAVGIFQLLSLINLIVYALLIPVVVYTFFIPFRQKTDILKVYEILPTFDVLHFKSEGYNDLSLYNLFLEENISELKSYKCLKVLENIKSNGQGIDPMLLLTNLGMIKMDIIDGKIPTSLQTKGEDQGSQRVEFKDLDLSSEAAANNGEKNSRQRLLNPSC

In the case of `CC(=O)S[C@@H]1CC2=CC(=O)CC[C@]2(C)[C@H]2CC[C@@]3(C)[C@@H](CC[C@@]34CCC(=O)O4)[C@H]12` [spironolactone], the Kd is reported as 160 µM.
